Measured values from patent US12023329B2, “Methods for the treatment of diseases associated with activation of inflammasomes” (Chang Gung University, priority 2020, dated 2024).

How the values were obtained:
LPS-primed d-THP-1 cells [1] = experiment: Nigericin-induced pyroptotic LDH release; format: cell-based, Human; conditions: rebastinib 0.01-1 μM, 30 min, nigericin 5 μM 30 min
Method: (§1) Pyroptosis is a form of programmed cell death. In this process, immune cells recognize foreign danger signals within themselves, release pro-inflammatory cytokines, swell, burst, and die. In this example, the effects of the present compound on nigericin-induced pyroptotic cell death and LDH release were investigated, in which the pyroptosis phenomena was observed using Field Emission Scanning Electron Microscope, and LDH level was determined by enzymatic assay.

LPS-induced ALI in mice = experiment: Animal model of LPS-induced acute lung injury (ALI); format: in vivo, mice (C57BL/6); conditions: rebastinib 10 mg/kg i.v. 1 hr before intra-tracheal LPS 2 mg/kg, lungs collected 5 hr later
Method: (§2) C57BL/6 mice (7-10-week-old, each weighted about 20-25 g) were maintained in micro-isolator units on a standard laboratory diet. Animals were housed under humidity- and temperature-controlled conditions and the light/dark cycle was set at 12-hr intervals, maintained under specified and opportunistic pathogen-free conditions. All animal studies were conducted under protocol approved by the Animal Care and Use Committee of Chang Gung University (Taipei, Taiwan).
ALI was induced by intra-tracheal spray of 2 mg/kg LPS in 7-8 weeks old C57BL/6 mice. Mice were fasted overnight and then intravenously injected with 50 ul of rebastinib (10 mg/kg) or an equal volume of solvent (vehicle). After 1 hr, mice were instilled with an intra-tracheal spray of 2 mg/kg LPS (dissolved in 40 μl 0.9% saline) or 0.9% saline under anesthesia. 5 hr later, mice were sacrificed and the lungs were collected. The lungs were fixed in 10% formalin for tissue section. The lung sections were stained with hematoxylin and eosin (H&E).
In this example, animal model of ALI was used to investigate the effect of the present compound on ALI. Mice were intravenously injected with 50 ul of rebastinib (10 mg/kg) or an equal volume of solvent (vehicle). After 1 hr, mice were instilled with an intra-tracheal spray of 2 mg/kg LPS (dissolved in 40 μl 0.9% saline) or 0.9% saline under anesthesia. […]

LPS-primed d-THP-1 cells [2] = experiment: Nigericin-induced pyroptotic cell death observed by field emission scanning electron microscopy; format: cell-based, Human; conditions: rebastinib 1 μM or glibenclamide 50 μM, 30 min, nigericin 5 μM 30 min, SEM images
Method: d-THP-1 cells (treated with LPS, the tested compounds, and the stimulant as described above or untreated) were fixed, in sequence, by use of 4% paraformaldehyde and 2.5% glutaraldehyde, respectively for 10 min, washed with PBS, then reacted with osmium tetroxide (OsO4) for 30 min; the cells were thoroughly washed with distilled water, then incubated with tannic acid for 30 min. […] Repeated the 100% ethanol dehydration step 3 times. The specimens were then dried with a mixture of CO2 and ethanol supercritical condition using Critical Point Dryer (CPD) (LEICAME CPD 300). The dried specimens were subsequently fixed on an alumina platform, and sputted with gold ions (ion sputter, JEOL JFC-1100E, operated at 1-2 mA for 60 sec) before subjecting to observation under Field Emission Scanning Electron Microscope (FE-SEM).
as §1

LPS-primed d-THP-1 cells [3] = experiment: Nigericin-induced IL-1β secretion in LPS-primed d-THP-1 cells (ELISA); format: cell-based, Human; conditions: rebastinib 0.01-1 μM, 30 min pre-incubation, nigericin 5 μM 30 min, IL-1β in supernatant by ELISA
Method: (§3) Human monocytic cell line THP-1 was purchased from American Type Culture Collection (ATCC) and maintained in RPMI-1640 Medium supplemented with 10% fetal bovine serum (FBS), 1% antibiotic-antimycotic solution, 0.1% (3-mercaptoethanol ((3-ME), and phenol red indicator in an incubator at 37° C. with 5% CO2. The medium was changed every 2-3 days.
(§4) To induce differentiation, THP-1 cells (cell density was about 5×10^5/mL) was cultivated in a serum-free medium containing 100 nM of phorbol 12-myristate 13-acetate (PMA) for about 4 hr. Then, the PMA-containing medium was replaced with a fresh RPMI-1640 medium, and the cultivation was continued for another 2 days to allow the THP-1 cells to differentiate into macrophage-like cells, hereafter termed “d-THP-1 cells.”
(§5) d-THP1 cells were first treated with 100 ng/mL of lipopolysaccharide (LPS) for 3 hr, then LPS-containing medium was replaced by a fresh medium. […]
(§6) The level of IL-1β and IL-18 was independently determined by ELISA assay kit (R&D system) in accordance with the manufacturer's protocol. The level of […] and IL-18 was determined from the 450 and 540 nm absorbance measured by Multiskan GO multiplate reader. […]

LPS-primed d-THP-1 cells [4] = experiment: Nigericin-induced IL-18 secretion in LPS-primed d-THP-1 cells (ELISA); format: cell-based, Human; conditions: rebastinib 0.01-1 μM, 30 min pre-incubation, nigericin 5 μM 30 min
Method: as §3, §4, §5, §6

[5] = system: LPS/D-GalN-induced acute liver failure in mice; experiment: Animal model of LPS/D-GalN-induced acute liver failure; format: in vivo, mice (C57BL/6); conditions: for acute liver failure: liver bleeding and inflammation (gross liver morphology): rebastinib 5 or 10 mg/kg i.v. 1 hr before LPS (40 μg/kg)/D-GalN (400 mg/kg) i.p.
Method: as §2
Mice were randomly divided into 4 groups. The test compound rebastinib (5 or 10 mg/Kg) or a control solvent (80% saline, 10% ethanol, 10% Tween-20) was injected through the tail vein of each mice. The mice were allowed to rest for 1 hr, then LPS ([…])/D-GalN (400 mg/Kg) was injected through abdominal space for 5 hr to induce acute liver failure. Blood samples and tissue samples were respectively collected. Blood samples were analyzed for their respective levels of LDH, AST, ALT, BUN, and CRE. The livers were fixed in 10% formalin for tissue section. The liver sections were stained with hematoxylin and eosin (H&E).
In this example, animal model of acute liver failure was used to investigate the effect of the present compound on acute liver failure. Briefly, animals were first subjected to LPS/D-GalN treatment (LPS: 40 […]) to create acute liver failure, then blood and tissue samples with or without treatment of the present compound were taken, which were then subjected to biochemistry and microscopy analysis.

LPS-primed d-THP-1 cells [6] = experiment: MSU-induced IL-1β secretion in LPS-primed d-THP-1 cells (ELISA); format: cell-based, Human; conditions: rebastinib 0.003-1 μM, 30 min pre-incubation, MSU 100 μg/ml 4 hr
Method: as §3, §4, §5, §6

LPS-primed d-THP-1 cells [7] = experiment: Nigericin-induced ASC speck formation (fluorescent microscopy); format: cell-based, Human; conditions: rebastinib 1 μM or glibenclamide 50 μM, 30 min, nigericin 5 μM 30 min, anti-ASC staining
Method: d-THP-1 cells (treated with LPS, the tested compound, and the stimulant as described above or untreated) were fixed by 4% paraformaldehyde, washed with PBS (3 times), treated with Triton-X-100 (0.1%) for 10 min, washed with PBS (3 times), added 5% BSA for 1 hr, then washed with PBS (3 times) before the primary antibody (anti-ASC) was added. The primary anti-ASC antibody labeled cells were incubated at 4° C. overnight, then was labeled with the secondary antibody at RT for 1 hr, washed with PBS (3 times), added Hoechst 33342, washed with PBS (3 times), added ProLong™ Gold antifade reagent, then photographed using Fluorescent Microscope (IX81 Olympus, with Lumen 200 Fluorescence Illumination System). A hallmark of inflammasome activation is the ASC speck, a micrometre-sized structure formed by the inflammasome adaptor protein ASC (apoptosis-associated speck-like protein containing a CARD), which consists of a pyrin domain (PYD) and a caspase recruitment domain (CARD). In this example, the effect of the present compound on nigericin-induced formation of ASC speck in LPS-primed d-THP-1 cells was observed using fluorescence microscope, and results are illustrated in FIG. 8.

LPS-primed d-THP-1 cells [8] = experiment: Imiquimod-induced IL-1β secretion in LPS-primed d-THP-1 cells (ELISA); format: cell-based, Human; conditions: rebastinib 0.003-1 μM, 30 min pre-incubation, IMQ 100 μM 2 hr
Method: as §3, §4, §5, §6

[9] = rebastinib 5 or 10 mg/kg i.v., LPS/D-GalN i.p. 5 hr

4-[4-[(5-tert-butyl-2-quinolin-6-ylpyrazol-3-yl)-carbamoylamino]-3-fluorophenoxy]-N-methylpyridine-2-carboxamide [rebastinib]
nigericin-induced pyroptotic LDH release (LPS-primed d-THP-1 cells [1]): inhibited | nigericin-induced pyroptotic LDH release (LPS-primed d-THP-1 cells [1]; listed as present compound): inhibitory effect | LPS-induced lung morphology change and infiltration (H&E) (LPS-induced ALI in mice): significantly attenuated | LPS-induced lung morphology change and infiltration (H&E) (LPS-induced ALI in mice; listed as Rebastinib): attenuated | nigericin-induced pyroptotic cell death (swelling, bubbles, lysis) (LPS-primed d-THP-1 cells [2]): inhibited | nigericin-induced pyroptotic cell death (swelling, bubbles, lysis) (LPS-primed d-THP-1 cells [2]; listed as present compound): significantly reduced | nigericin-induced IL-1β secretion (LPS-primed d-THP-1 cells [3]): inhibited | nigericin-induced IL-1β secretion (LPS-primed d-THP-1 cells [3]; listed as present compound): significantly reduced | nigericin-induced IL-18 secretion (LPS-primed d-THP-1 cells [4]): inhibited | nigericin-induced IL-18 secretion (LPS-primed d-THP-1 cells [4]; listed as present compound): significantly reduced | acute liver failure: liver bleeding and inflammation (gross liver morphology) ([5]; 5 hr): attenuated | acute liver failure: liver bleeding and inflammation (gross liver morphology) ([5]; 5 hr, listed as present compound): significant attenuation | liver tissue weight ([5]; rebastinib 5 or 10 mg/kg i.v. 1 hr before LPS/D-GalN i.p., 5 hr): decreases | serum ALT level [5, 9]: decreased significantly | serum AST level [5, 9]: decreased significantly | serum CRE level [5, 9]: decreased significantly | serum LDH level [5, 9]: decreased significantly | serum biochemical parameters (AST, ALT, BUN, CRE, LDH) ([5]; rebastinib 5 or 10 mg/kg i.v., LPS/D-GalN i.p. 5 hr, clinical chemistry analyzer): attenuated | MSU-induced IL-1β secretion (LPS-primed d-THP-1 cells [6]): inhibited | MSU-induced IL-1β secretion (LPS-primed d-THP-1 cells [6]; listed as present compound): suppressed | nigericin-induced ASC speck formation (LPS-primed d-THP-1 cells [7]): inhibited | nigericin-induced ASC speck formation (LPS-primed d-THP-1 cells [7]; listed as present compound): greatly reduced | imiquimod-induced IL-1β secretion (LPS-primed d-THP-1 cells [8]): inhibited | imiquimod-induced IL-1β secretion (LPS-primed d-THP-1 cells [8]; listed as present compound): suppressed

COc1ccc(Cl)cc1C(=O)NCCc1ccc(S(=O)(=O)NC(=O)NC2CCCCC2)cc1 [glibenclamide]
nigericin-induced pyroptotic cell death (swelling, bubbles, lysis) (LPS-primed d-THP-1 cells [2]): significantly reduced | nigericin-induced ASC speck formation (LPS-primed d-THP-1 cells [7]): greatly reduced
